Laboratory results as given in US20050113315A1, “Glucopyranosyloxybenzylbenzene derivatives, medicinal compositions containing the same and intermediates in the production thereof” (KISSEI PHARMACEUTICAL CO., LTD., priority 2000, published 2005).

Legend:
human SGLT2 = target: T1, human SGLT2 (Homo sapiens, UniProt P31639, I433V); assay: Assay for inhibitory effect on human SGLT2 activity (uptake of methyl-α-D-glucopyranoside in COS-7 cells transiently expressing human SGLT2); type: cell-based; details: uptake of methyl-α-D-(U-14C)-glucopyranoside, 37° C., 2 hours
T1 construct: expressed in transfected cells; host or cells: COS-7 cells (RIKEN CELL BANK RCB0539), transient electroporation with KL29
T1 sequence (P31639 1-672 I433V): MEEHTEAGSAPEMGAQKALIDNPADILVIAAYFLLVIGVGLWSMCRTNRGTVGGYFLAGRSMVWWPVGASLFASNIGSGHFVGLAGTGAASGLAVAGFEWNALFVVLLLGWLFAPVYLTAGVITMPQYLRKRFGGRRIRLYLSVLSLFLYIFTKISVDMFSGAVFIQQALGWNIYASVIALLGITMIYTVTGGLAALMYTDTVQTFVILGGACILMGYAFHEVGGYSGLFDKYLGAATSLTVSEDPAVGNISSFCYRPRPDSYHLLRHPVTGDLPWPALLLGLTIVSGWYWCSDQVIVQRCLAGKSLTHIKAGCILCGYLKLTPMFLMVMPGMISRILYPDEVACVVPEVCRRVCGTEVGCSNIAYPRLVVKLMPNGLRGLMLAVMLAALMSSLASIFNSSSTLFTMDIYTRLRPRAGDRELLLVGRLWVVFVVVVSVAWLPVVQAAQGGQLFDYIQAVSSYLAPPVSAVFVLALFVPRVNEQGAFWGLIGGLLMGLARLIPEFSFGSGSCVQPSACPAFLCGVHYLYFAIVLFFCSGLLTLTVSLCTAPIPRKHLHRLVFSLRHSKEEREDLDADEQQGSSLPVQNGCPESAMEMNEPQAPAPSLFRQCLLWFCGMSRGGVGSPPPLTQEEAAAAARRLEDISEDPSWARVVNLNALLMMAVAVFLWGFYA
Procedure: Assay for Inhibitory Effect on Human SGLT2 Activity
1) Construction of the Plasmid Vector Expressing Human SGLT2
Preparation of the cDNA library for PCR amplification was performed by reverse transcription of a total RNA deprived from human kidney (Ori gene) with oligo dT as the primer, using […] Preamplification System (Gibco-BRL: LIFE TECHNOLOGIES). The DNA fragment coding for human SGLT2 was amplified by the PCR reaction, in which the human kidney cDNA library described above was used as the template and the following oligo nucleotides 0702F and 0712R, presented as Sequence Number 1 and 2 respectively, were used as the primers. The amplified DNA fragment was ligated into pCR-Blunt (Invitrogen), a vector for cloning, according to standard method of the kit. The Escherichia coli HB101 (Toyobo) was transformed according to usual method and then selection of the transformants was performed on the LB agar medium containing 50 μg/mL of kanamycin. After the plasmid DNA was extracted and purified from the one of the transformants, amplifying of the DNA fragment coding for human SGLT2 was performed by the PCR reaction, in which the following oligo nucleotides 0714F and 0715R, presented as Sequence Number 3 and 4 respectively, were used as the primers. The amplified DNA fragment was digested with restriction enzymes, Xho I and Hind III, and then purified with Wizard Purification System (Promega). This purified DNA fragment was inserted at the corresponding restriction sites of pcDNA3.1 (−) Myc/His-B (Invitrogen), a vector for expressing of fusion protein. The Escherichia coli HB101 was transformed according to usual method and then selection of the transformant was performed on the LB agar medium containing 100 μg/mL of ampicillin. After the plasmid DNA was extracted and purified from this transformant, the base sequence of the DNA fragment inserted at the multi-cloning sites of pcDNA3.1 (−) Myc/His-B was analyzed. […] Sequentially, a clone in which valine is substituted for the isoleucine-433 was obtained. This plasmid vector expressing human SGLT2 in which the peptide presented as Sequence Number 5 is fused to the carboxyl terminal alanine residue was designated KL29.
2) Preparation of the Cells Expressing Transiently Human SGLT2
KL29, the plasmid coding human SGLT2, was transfected into COS-7 cells (RIKEN CELL BANK RCB0539) by electroporation. Electroporation was performed with GENE PULSER II (Bio-Rad Laboratories) under the condition: 0.290 kV, 975 μF, 2×10^6 cells of COS-7 cell and 20 μg of KL29 in 500 μL of OPTI-MEM I medium (Gibco-BRL: LIFE TECHNOLOGIES) in the 0.4 cm type cuvette. After the gene transfer, the cells were harvested by centrifugation and resuspended with OPTI-MEM I medium (1 mL/cuvette). To each well in 96-wells plate, 125 μL of this cell suspension was added. After overnight culture at 37° C. under 5% CO2, 125 μL of DMEM medium which is containing 10% of fetal bovine serum (Sanko Jyunyaku), 100 units/mL sodium penicillin G (Gibco-BRL: LIFE TECHNOLOGIES), 100 μg/mL streptomycin sulfate (Gibco-BRL: LIFE TECHNOLOGIES) was added to each well. After a culture until the following day, these cells were used for the measurement of the inhibitory activity against the uptake of methyl-α-D-glucopyranoside.
3) Measurement of the Inhibitory Activity Against the Uptake of methyl-α-D-glucopyranoside […]

ICR mice = assay: Acute toxicity test; type: in vivo; details: male ICR mice, 300 mg/kg subcutaneous, 5 animals in each group, observation for 24 hours
Procedure: A mixture (saline:polyethylene glycol 400:ethanol=5:4:1) was added to a test compound to prepare 30 mg/mL solution. As experimental animals, 5 week old male ICR mice (CLEA JAPAN, INC. 29-35 g, 5 animals in each group), which were fasted for 4 hours, were used. The above solution was subcutaneously administered at a dose of 10 mL/kg (300 mg/kg) to the above experimental animals and then observation for 24 hours was performed.

SD rats = assay: Assay for the facilitatory effect on urinary glucose excretion; type: in vivo, rat; details: male SD rats, oral glucose 2 g/kg, urine collected 24 hours
Procedure: Assay for the Facilitatory Effect on Urinary Glucose Excretion
As experimental animals, overnight fasted SD rats (Japan SLC. Inc., male, 7 weeks of age, 180-220 g) were used. Ten mg of a test compound was suspended or dissolved in 300 μL of ethanol and dissolved by adding 1.2 mL of polyethylene glycol 400 and 1.5 mL of saline to prepare a 3.3 mg/mL solution. A portion of this solution was diluted with a mixture (saline:polyethylene glycol 400:ethanol=5:4:1) to prepare 3.3, 0.33 and 0.033 mg/mL solution. After body weights of the rats were measured, the solution of test compound was intravenously injected to the tail vein at a dose of 3 mL/kg (10, 1, 0.1 mg/kg). For control, only a mixture (saline:polyethylene glycol 400:ethanol=5:4:1) was intravenously injected to the tail vein at a dose of 3 mL/kg. Immediately after intravenous injection to the tail vein, 200 g/L of aqueous glucose solution was orally administered to the rats at a dose of 10 mL/kg (2 g/kg). The intravenous injection to the tail vein was performed with 26 G injection needle and 1 mL syringe. The oral administration was performed with gastric tube for rat and 2.5 mL syringe. The head count in each group was 3. Collection of urine was performed in metabolic cage after the administration of glucose was finished. The sampling time for collection of urine was 24 hours after the administration of glucose. After the collection of urine was finished, the urine volume was recorded and the urinary glucose concentration was measured. The glucose concentration was measured with a kit for laboratory test: Glucose B-Test WAKO (Wako Pure Chemical Industries, Ltd.). The amount of urinary glucose excretion during 24 hours per 200 g of body weight was calculated from the urine volume, urinary glucose concentration and body weight.

IC50 (human SGLT2) | Compound | Death number (ICR mice) | Amount of Urinary Glucose Excretion (SD rats; 0.1 mg/kg intravenous) | Amount of Urinary Glucose Excretion (SD rats; 1 mg/kg intravenous) | Amount of Urinary Glucose Excretion (SD rats; 10 mg/kg intravenous)
120 nM | OC/C=C/c1ccc(Cc2ccccc2O[C@@H]2O[C@H](CO)[C@@H](O)[C@H](O)[C@H]2O)cc1 [Example 19, (E)-2-[4-(3-hydroxy-1-prop-1-ene-1-yl)benzyl]phenyl β-D-glucopyranoside] |  |  |  | 
30 nM | Cc1cc(C)c(Cc2ccc(CCCO)cc2)c(O[C@@H]2O[C@H](CO)[C@@H](O)[C@H](O)[C@H]2O)c1 [Example 30, 2-[4-(3-Hydroxypropyl)benzyl]-3,5-dimethylphenyl β-D-glucopyranoside] |  |  |  | 
10 nM | CCc1ccc(Cc2ccc(N)cc2O[C@@H]2O[C@H](CO)[C@@H](O)[C@H](O)[C@H]2O)cc1 [Example 29, 5-Amino-2-(4-ethylbenzyl)phenyl β-D-glucopyranoside] |  |  |  | 
59 nM | Cc1cc(C)c(Cc2ccc(CCO)cc2)c(O[C@@H]2O[C@H](CO)[C@@H](O)[C@H](O)[C@H]2O)c1 [Example 31, 2-[4-(2-Hydroxyethyl)benzyl]-3,5-dimethylphenyl β-D-glucopyranoside] |  |  |  | 

Compound | IC50 (human SGLT2) | Death number (ICR mice) | Amount of Urinary Glucose Excretion (SD rats; 0.1 mg/kg intravenous) | Amount of Urinary Glucose Excretion (SD rats; 1 mg/kg intravenous) | Amount of Urinary Glucose Excretion (SD rats; 10 mg/kg intravenous)
COc1ccc(Cc2c(C)cc(C)cc2O[C@@H]2O[C@H](CO)[C@@H](O)[C@H](O)[C@H]2O)cc1 [Example 37, 2-(4-Methoxybenzyl)-3,5-dimethylphenyl β-D-glucopyranoside] | 290 nM | 0/5 | 15 mg/24 hours/200 g body weight | 125 mg/24 hours/200 g body weight | 288 mg/24 hours/200 g body weight
